These results are taken from patent US9593108B2, “Compounds and methods for antiviral treatment” (PTC Therapeutics, Inc., priority 2009, dated 2017).

Structures are written as SMILES.

The subject of data set [1] is HCV replicon RNA (GenBank Accession No. AJ242654). As to the kind of experiment: HCV Replicon Assay (replicon RNA reduction and/or Fluc reporter signal). The class given is cell-based, Hepatitis C virus. To be noted: Hepatitis C virus, 72 h, replicon-containing cells cultured with test compound for up to 3 days. An outline of the steps:
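Bicistronic replicon-containing cells cultured with compound for up to 3 days, with interferon as positive control. Inhibition quantified by replicon RNA reduction and/or Fluc reporter signal; IC50 values generally derived from replicon RNA reduction.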
Background: Replicon systems follow genome replication, usually without infectious particles.

Regarding `C[C@@H](NS(=O)(=O)c1ccc(-c2c(C#N)c3cc(Cl)ncc3n2C2CCC2)cc1)C(F)(F)F` [Cpd 105, 4-(5-chloro-3-cyano-1-cyclobutyl-1H-pyrrolo[2,3-c]pyridin-2-yl)-N-[(2R)-1,1,1-trifluoropropan-2-yl]benzenesulfonamide], the melting point was 248 to 250 °C. In data set [1], this compound had an IC50 of under 500 nM.
For the compound `N#Cc1c(-c2ccc(S(=O)(=O)NC3CC3)cn2)n(C2CCC2)c2cnc(Cl)cc12` [Cpd 106, 6-(5-chloro-3-cyano-1-cyclobutyl-1H-pyrrolo[2,3-c]pyridin-2-yl)-N-cyclopropylpyridine-3-sulfonamide], the melting point was in the range of 170 to 172 °C. The compound further registered an IC50 in data set [1] of under 500 nM.
For `C[C@@H](NS(=O)(=O)c1ccc(-c2c(C#N)c3cc(C#N)cnc3n2C2CCC2)nc1)C(F)(F)F` [Cpd 107, 6-(3,5-dicyano-1-cyclobutyl-1H-pyrrolo[2,3-b]pyridin-2-yl)-N-[(2R)-1,1,1-trifluoropropan-2-yl]pyridine-3-sulfonamide], in that order: 202 to 203 °C and under 500 nM.
The compound `C[C@H](NS(=O)(=O)c1ccc(-c2c(C#N)c3cc(C#N)cnc3n2C2CCC2)nc1)C(F)(F)F` [Cpd 108, 6-(3,5-dicyano-1-cyclobutyl-1H-pyrrolo[2,3-b]pyridin-2-yl)-N-[(2S)-1,1,1-trifluoropropan-2-yl]pyridine-3-sulfonamide] displayed a melting point of 203 to 204 °C. In data set [1], the IC50 was under 500 nM.
Compound `C[C@H](NS(=O)(=O)c1cnc(-c2c(C#N)c3cc(C#N)cnc3n2C2CCC2)nc1)C(F)(F)F` [Cpd 109, 2-(3,5-dicyano-1-cyclobutyl-1H-pyrrolo[2,3-b]pyridin-2-yl)-N-[(2S)-1,1,1-trifluoropropan-2-yl]pyrimidine-5-sulfonamide] showed a melting point of 216 to 219 °C. For the same compound, in data set [1], the IC50 is under 500 nM.
The like results for `C[C@H](NS(=O)(=O)c1ccc(-c2c(C#N)c3cc(C#N)cnc3n2C2CCC2)cc1)C(F)(F)F` [Cpd 110, 4-(3,5-dicyano-1-cyclobutyl-1H-pyrrolo[2,3-b]pyridin-2-yl)-N-[(2S)-1,1,1-trifluoropropan-2-yl]benzenesulfonamide] were, in that order, 241 to 243 °C and under 500 nM.
The compound `N#Cc1cnc2c(c1)c(C#N)c(-c1ccc(S(=O)(=O)NC3(C(F)(F)F)CC3)cn1)n2C1CCC1` [Cpd 111, 6-(3,5-dicyano-1-cyclobutyl-1H-pyrrolo[2,3-b]pyridin-2-yl)-N-[1-(trifluoromethyl)cyclopropyl]pyridine-3-sulfonamide] yielded a melting point of 207 to 208 °C. In data set [1], the IC50 is under 500 nM.
Take `N#Cc1cnc2c(c1)c(C#N)c(-c1ccc(S(=O)(=O)NC3(C(F)(F)F)CC3)cc1)n2C1CCC1` [Cpd 112, 4-(3,5-dicyano-1-cyclobutyl-1H-pyrrolo[2,3-b]pyridin-2-yl)-N-[1-(trifluoromethyl)cyclopropyl]benzenesulfonamide]: the melting point lay within 231 to 233 °C. Besides, the IC50 in data set [1] was under 500 nM.
In the case of `CC1(NS(=O)(=O)c2ccc(-c3c(C#N)c4cc(C#N)cnc4n3C3CCC3)nc2)CC1` [Cpd 113, 6-(3,5-dicyano-1-cyclobutyl-1H-pyrrolo[2,3-b]pyridin-2-yl)-N-(1-methylcyclopropyl)pyridine-3-sulfonamide], the melting point fell in the range of 198 to 200 °C. The same compound had an IC50 in data set [1] of under 500 nM.
The like results for `CC1(NS(=O)(=O)c2cnc(-c3c(C#N)c4cc(C#N)cnc4n3C3CCC3)nc2)CC1` [Cpd 114, 2-(3,5-dicyano-1-cyclobutyl-1H-pyrrolo[2,3-b]pyridin-2-yl)-N-(1-methylcyclopropyl)pyrimidine-5-sulfonamide] were, in that order, 229 to 231 °C and under 500 nM.
With `C[C@H](NS(=O)(=O)c1ccc(-c2c(C#N)c3cc(C4CC4)cnc3n2C2CCC2)cc1)C(F)(F)F` [Cpd 115, 4-(3-cyano-1-cyclobutyl-5-cyclopropyl-1H-pyrrolo[2,3-b]pyridin-2-yl)-N-[(2S)-1,1,1-trifluoropropan-2-yl]benzenesulfonamide], the melting point lay in the range of 196 to 203 °C. For the same compound, the IC50 in data set [1] fell in the range of 500 to 2000 nM.
As to `C[C@@H](NS(=O)(=O)c1ccc(-c2c(C#N)c3cc(C4CC4)cnc3n2C2CCC2)cc1)C(F)(F)F` [Cpd 116, 4-(3-cyano-1-cyclobutyl-5-cyclopropyl-1H-pyrrolo[2,3-b]pyridin-2-yl)-N-[(2R)-1,1,1-trifluoropropan-2-yl]benzenesulfonamide], the melting point is 190 to 195 °C. Further, in data set [1], the IC50 is under 500 nM.
`C[C@H](NS(=O)(=O)c1ccc(-c2c(C#N)c3cc(C4CC4)cnc3n2C2CCC2)nc1)C(F)(F)F` [Cpd 117, 6-(3-cyano-1-cyclobutyl-5-cyclopropyl-1H-pyrrolo[2,3-b]pyridin-2-yl)-N-[(2S)-1,1,1-trifluoropropan-2-yl]pyridine-3-sulfonamide] displayed a melting point of 136 to 144 °C. In data set [1], the IC50 is under 500 nM.
`C[C@@H](NS(=O)(=O)c1ccc(-c2c(C#N)c3cc(C4CC4)cnc3n2C2CCC2)nc1)C(F)(F)F` [Cpd 118, 6-(3-cyano-1-cyclobutyl-5-cyclopropyl-1H-pyrrolo[2,3-b]pyridin-2-yl)-N-[(2R)-1,1,1-trifluoropropan-2-yl]pyridine-3-sulfonamide]: the melting point was in the range of 138 to 147 °C. Moreover, in data set [1], the IC50 is under 500 nM.
For the compound `C[C@H](NS(=O)(=O)c1cnc(-c2c(C#N)c3cc(C4CC4)cnc3n2C2CCC2)nc1)C(F)(F)F` [Cpd 119, 2-(3-cyano-1-cyclobutyl-5-cyclopropyl-1H-pyrrolo[2,3-b]pyridin-2-yl)-N-[(2S)-1,1,1-trifluoropropan-2-yl]pyrimidine-5-sulfonamide], the melting point fell in the range of 176 to 183 °C. Further, the IC50 in data set [1] was under 500 nM.
In the case of `CC(C)(NS(=O)(=O)c1ccc(-c2c(C#N)c3cc(C4CC4)cnc3n2C2CCC2)cc1)C(F)(F)F` [Cpd 121, 4-(3-cyano-1-cyclobutyl-5-cyclopropyl-1H-pyrrolo[2,3-b]pyridin-2-yl)-N-(1,1,1-trifluoro-2-methylpropan-2-yl)benzenesulfonamide], the melting point is 207 to 212 °C. Moreover, the IC50 in data set [1] was under 500 nM.
Regarding `C[C@H](NS(=O)(=O)c1ccc(-c2c(C#N)c3cc(OC(F)F)cnc3n2C2CCC2)nc1)C(F)(F)F` [Cpd 122, 6-[3-cyano-1-cyclobutyl-5-(difluoromethoxy)-1H-pyrrolo[2,3-b]pyridin-2-yl]-N-[(2S)-1,1,1-trifluoropropan-2-yl]pyridine-3-sulfonamide], the melting point lay within 155 to 156 °C. This compound registered an IC50 in data set [1] of under 500 nM.
Turning to `N#Cc1c(-c2ccc(S(=O)(=O)NC3(C(F)(F)F)CC3)cn2)n(C2CCC2)c2ncc(C3CC3)cc12` [Cpd 124, 6-(3-cyano-1-cyclobutyl-5-cyclopropyl-1H-pyrrolo[2,3-b]pyridin-2-yl)-N-[1-(trifluoromethyl)cyclopropyl]pyridine-3-sulfonamide], the melting point was in the range of 163 to 171 °C. In data set [1], this compound showed an IC50 of under 500 nM.
`CC(C)(C)NS(=O)(=O)c1ccc(-c2c(C#N)c3cc(C4CC4)cnc3n2C2CCC2)cc1` [Cpd 125, N-tert-butyl-4-(3-cyano-1-cyclobutyl-5-cyclopropyl-1H-pyrrolo[2,3-b]pyridin-2-yl)benzenesulfonamide] showed a melting point of 210 to 215 °C. The compound also registered an IC50 in data set [1] of under 500 nM.

A word on the IC50: it is the concentration that gives 50% inhibition. As a reminder, the melting point is the temperature of the solid-liquid transition.
